# Test results reported in patent publication US7105162B1, “Pharmaceutical composition for immunomodulation based on peptides and adjuvants” (Boehringer Ingelheim International GmbH, priority 1996, dated 2006).
# Columns and labels:
# [1] = system: P388D1 cells; assay: Permeabilisation of the cell membrane: LDH release (Cytotox 96); assay type: cell-based, murine; conditions: isotonic conditions; FIG. 12
# Experimental: Peptides can be absorbed by APCs by means of specific mechanisms such as macropinocytosis or receptor-mediated endocytosis (Lanzavecchia, 1996). An alternative mechanism may consist in the polyamino acids making the cell membrane permeable and in this way allowing peptides to diffuse from the medium into the cytoplasm. • a) The possible permeabilisation of the cell membrane was tested by measuring the release of the cytoplasmic enzyme lactate dehydrogenase (LDH) after the incubation of P388D1 cells with polyamino acids (polylysine or polyarginine) under isotonic conditions using the commercially available kit (Cytotox 96, Promega, Madison, Wis., USA) in accordance with the manufacturer's instructions. […] When samples treated with polyamino acids alone were compared, no difference in the release of LDH was found compared with treatment with a mixture of polylysine or polyarginine with peptide. […] The fluorescence emitted by FITC is strongly pH-dependent. In an environment with pH conditions such as those found in endosomes, fluorescence is suppressed. Therefore, FITC-labelled peptides which are absorbed by the cells into the endosomes show reduced fluorescence. When monensin is added, the low pH of the endosomes is neutralised, leading to a measurably greater fluorescence of the internalised FITC-labelled peptides.
# [2] = system: APCs; assay: Internalisation of FITC-labelled peptide (monensin treatment, 4° C. versus 37° C.), throughflow cytometry; assay type: cell-based; conditions: incubated at 37° C., then 50 μM monensin at 4° C.; FIG. 13
# Experimental: Peptides can be absorbed by APCs by means of specific mechanisms such as macropinocytosis or receptor-mediated endocytosis (Lanzavecchia, 1996). An alternative mechanism may consist in the polyamino acids making the cell membrane permeable and in this way allowing peptides to diffuse from the medium into the cytoplasm. • a) The possible permeabilisation of the cell membrane was tested by measuring the release of the cytoplasmic enzyme lactate dehydrogenase (LDH) after the incubation of P388D1 cells with polyamino acids (polylysine or polyarginine) under isotonic conditions using the commercially available kit (Cytotox 96, Promega, Madison, Wis., USA) in accordance with the manufacturer's instructions. […] The fluorescence emitted by FITC is strongly pH-dependent. In an environment with pH conditions such as those found in endosomes, fluorescence is suppressed. Therefore, FITC-labelled peptides which are absorbed by the cells into the endosomes show reduced fluorescence. When monensin is added, the low pH of the endosomes is neutralised, leading to a measurably greater fluorescence of the internalised FITC-labelled peptides.
# The cells were incubated with a mixture of polyarginine (average molecular weight range 100,000, chain length 490) and fluorescence-labelled peptide at 4° C. or 37° C. […]
sequence,measurement,setting,value
"LFEAIEGFI [FITC-labelled model peptide antigen, MHC Kd-restricted, derived from influenza haemagglutinin]",LDH released from cells,[1],no measurable LDH-activity
same,change in fluorescence after monensin treatment,[2],only a slight increase in fluorescence
